Measurements: patent publication US5808109A, “Compounds that inhibit complement and/or suppress immune activity” (T Cell Sciences, Inc., priority 1995, dated 1998)
Several values for one entry are separate records, joined by “and”; a condition that tells them apart may be missing. Equal entries are not always repeated. Structures can show the parent of a compound that is named as a salt. Where two headings read alike, the source gives them in different places.

Key:
C5a production = test: Inhibition of C5a production in human serum (aggregated IgG, RIA); assay type: biochemical; settings: concentration inhibiting C5a production 50% relative to control
Protocol: (§1) The ability to inhibit complement was tested by assaying for specific inhibition of C3a and C5a production. For all experiments, a single human serum pool, to be used as a source of complement, was aliquoted and stored frozen at -70° C. Human IgG was heat-aggregated, aliquoted, and stored frozen at -70° C. For each experiment, serum aliquots were equilibrated at 37° C. with varying concentrations of the compounds tested. The classical complement pathway was initiated by the addition of aggregated human IgG. Control samples containing no IgG were always included. After a fixed reaction time of 10 minutes (determined in an earlier time-course study to provide a convenient time interval during which the production of C5a or C3a is nearly complete, i.e., greater than 90%), the levels of the released complement peptides (C5a or C3a) were determined by radioimmunoassay using commercially available radioimmunoassay (RIA) kits (C5a RIA, UpJohn Cat. No. 3250-02; C3a RIA, UpJohn Cat. No. 3245-01; C5a RIA, Amersham Cat. No. RPA.520; C3a RIA, Amersham RPA.518).
(§2) Since a competitive immunoassay was used, complement peptide (C5a and C3a) concentrations varied inversely with the counts. The Counts Bound (CB) for a sample was defined as the total counts (in counts per minute, cpm) measured in the pellet minus the counts measured in a nonspecific binding (NSB) control. The NSB control was a sample containing only tracer peptide (^125 I-labelled) and second precipitating antiserum; it contained no C5a- or C3a-specific antiserum.
(§3) The y-axis in FIG. 2 represents the fraction inhibition. The fraction inhibition is equal to the Counts Bound (CB) for a "sample," less the CB in the "sample with no added compound," divided by the CB for the "no IgG control" less the CB in the "sample with no added compound." [formula]
(§4) FIG. 2 is representative of the data plots obtained from the assays described above.

C3a production = test: Inhibition of C3a production in human serum (aggregated IgG, RIA); assay type: biochemical; settings: for IC50: human serum, concentration inhibiting C3a production 50% relative to control
Protocol: as §1, §2, §3, §4

[1] = system: human peripheral blood lymphocytes (PBL); test: Inhibition of proliferation of peripheral blood lymphocytes, 3H-thymidine incorporation; assay type: cell-based; settings: Lymphocyte, Table IX, 72 h
Protocol: The proliferation of human peripheral blood lymphocytes (PBL) in response to phytohemagglutinin (PHA, Well-come) or anti-CD3 monoclonal antibody (OKT-3, Ortho) was assessed by the incorporation of ^3 H-thymidine. Compound 11a was diluted in culture media to the desired concentrations, human PBL were added to a final concentration of 10^6 cells/ml, and then either PHA (Wellcome) or anti-CD3 (OKT3, Ortho) antibody (final concentration, […]) was added to initiate proliferation. The final volume per sample was 100 μl. The cells were incubated for 72 hours after stimulation, pulsed with 1 μCi ^3 H-thymidine per sample for 4 hours, harvested, and counted in a scintillation counter. […] Because cell viability was unaffected by the presence of 11a (see supra), the inhibition apparently was not due to cytotoxic effects.

human complement = test: Inhibition of complement-mediated hemolysis, human serum, sensitized sheep erythrocytes; assay type: biochemical
Protocol: The ability to inhibit complement was also tested by assaying for inhibition of complement-mediated red cell lysis (hemolysis). The inhibition of hemolysis was determined as a function of compound concentration. The compounds to be tested were diluted in 0.1M Hepes buffer (0.15N NaCl, pH 7.4), and 50 μl were added to each well of a V-bottom microtiter plate. Human serum, used as the complement source, was diluted 1 to 500 in Hepes buffer, and 50 μl were added to each well. Next, commercially available sheep erythrocytes with anti-sheep antibody (Diamedix Cat. No. 789-001) were used as received and added at 100 μl/well to initiate the complement pathway leading to hemolysis. The plate was incubated for 60 minutes at 37° C. and then centrifuged at 500×g for 10 minutes. The supernatants were removed and placed in a flat-bottom microtiter plate. The extent of hemolysis was measured as a function of the sample absorbance at 410 nm. The maximal absorbance (corresponding to maximal hemolysis), Amax, was obtained from the absorbance value of an erythrocyte sample containing only human serum, AS, less the absorbance of a sample containing only the red cells, A0. Thus, Amax =AS -A0. The difference between the absorbance of an erythrocyte sample containing both human serum and inhibitive compound, and the absorbance of a cell sample containing inhibitive compound only, was defined as Asample. The inhibition, IH, was expressed as the fraction (Amax -Asample)/Amax, and IH50 was defined as the concentration of inhibitive compound required to produce a value of IH=1/2.
The 4 substituted spirobenzofuran compounds of example 7 and the disubstituted spirobenzofuran compounds of example 8 were tested for their capacity to inhibit complement-mediated lysis of sheep red blood cells (SRBC) as described in Section 6.6.2 supra with the modification that the human serum used as the complement source was diluted to 1 to 100 in Hepes buffer, instead of […]. The results of the hemolysis assays are shown in FIG. 8 and Tables XI and XII.

[2] = system: alternative complement pathway; test: Inhibition of alternative pathway mediated hemolysis, rabbit erythrocytes, human serum; assay type: biochemical; settings: Table XIV, human serum 1 in 24, read-out: Alternative pathway AH50
Protocol: The capacity of the substituted dihydrobenzofurans to inhibit the alternative complement pathway was assessed using the modified method of Platts-Mills and Ishizaka, 1974, J. Immunol., 113:348-358. Essentially, rabbit erythrocytes were lysed using human serum as complement in gelatin veronal buffer (GVB, Sigma, St. Louis, Mo.) with added EGTA (ethylene glycol-bis[β-aminoethyl ether]N,N,N^1,N^1 -tetraacetic acid) and Mg^2+ to 8 mM and 2 mM, respectively. Rabbit erythrocytes (4.5×10^6 cells/ml), human serum (1 in 24 dilution), and the compounds to be tested were incubated one hour at 37° C. in a V-bottom microtiter plate, cells pelleted by centrifugation, the supernatants transferred to a flat-bottom microtiter plate, and the absorbance at 410 nm determined. Samples were paired with identical controls lacking human serum (complement-independent lysis). Both samples and controls were run in triplicate. Control values were subtracted from sample values and the fractional inhibition was determined relative to the uninhibited (no added compound) sample. Results are reported as the concentration of compound yielding fifty per cent (50%) inhibition, AH50. The AH50 values for several of the compounds are included along with the results of other in vitro assays in Table XIV.

factor I = biological target: T1, factor I (Homo sapiens, UniProt P05156); test: Inhibition of C3b proteolysis by factor I (SDS-PAGE densitometry); assay type: biochemical; settings: sCR1 8 nM as cofactor, C3b 1.2 μM, factor I 0.1 μM, 60 min 37° C.; read-out: C3b cleavage by Factor I, concentration yielding 50% inhibition
T1 construct: purchased Cytotech, San Diego, Calif
T1 sequence (P05156 340-583 limits assumed): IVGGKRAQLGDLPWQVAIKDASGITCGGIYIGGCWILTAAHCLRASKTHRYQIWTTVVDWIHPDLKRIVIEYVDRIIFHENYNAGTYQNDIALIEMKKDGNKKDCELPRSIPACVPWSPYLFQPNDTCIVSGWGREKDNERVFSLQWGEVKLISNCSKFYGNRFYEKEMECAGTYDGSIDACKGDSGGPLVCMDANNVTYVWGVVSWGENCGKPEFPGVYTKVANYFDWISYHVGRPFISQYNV
Excerpt: The reactions were stopped by the addition of reducing SDS-PAGE sample buffer (Laemmli, 1970, Nature, 227:680-685) subjected to electrophoresis on 4-20% polyacrylamide gradient gels, visualized with Coomassie Blue stain, and quantitated by densitometry. Controls lacking factor I and controls with factor I but lacking test compounds were included. Results are reported as the concentration of test compound which inhibited approximately fifty percent (50%) of the C3b a-chain degradation, IC50.

rat complement = test: Inhibition of complement-mediated hemolysis, rat serum as complement source; assay type: biochemical; settings: Table XIII; read-out: IH50 for Rat Complement
[3] = system: hyperacute graft rejection; test: Guinea pig-to-rat cardiac transplant (discordant xenograft); assay type: in vivo; settings: 28 mg/rat intravenous bolus; for Graft survival time: individual animals
Protocol: The effects of compounds 68 and 44a on hyperacute graft rejection were tested in a model of discordant xenografting. The methods were the same as described previously (Prewitt et al., 1991, Transplantation 52:868-873) except that the test compounds were substituted for the active agent (sCR1) of the earlier study. As indicated in the earlier study, male Lewis rats, 12-16 weeks of age, and male Hartley guinea pigs, 4-10 weeks of age (Charles River, Wilmington, Mass.) served as cardiac xenograft recipients and donors, respectively. Under Halothane anesthesia, heterotopic cardiac xenotransplantation was performed by a modification of the microvascular technique of Ono and Lindsey, 1990, J. Thorac. Cardiovas.
Cardiac xenografts were evaluated visually over the first 30 minutes following reperfusion and then, following abdominal closure, every 10 minutes by palpation until rejection. Rejection was defined as total cessation of cardiac xenograft contraction and was confirmed by direct visualization and histological examination. […] Control animals received similar volumes of PBS. Three (n=3) control animals were tested concurrent with the animals receiving compound 68; data from historic controls (n=13) subjected to the same procedure and previously reported (Pruitt et al., 1991, Transplantation 52:868-873) are also included for comparison. Table XV includes the xenograft survival times (minutes) for individual animals and the means and standard errors of the mean (SEM) for the various groups.

[4] = system: guinea pig serum complement; settings: sensitized sheep erythrocytes, read-out: concentration reducing hemolysis 50%; cited from earlier work
[5] = PHA stimulation, read-out: IP50 PHA-stimulated PBL
[6] = anti-CD3 (OKT-3) stimulation, read-out: IP50 OKT-3-stimulated PBL
[7] = Table VII, human serum, read-out: IHO50
[8] = Table XI, human serum diluted 1 to 100, read-out: IH50 Mean
[9] = Table XII, human serum diluted 1 to 100, read-out: IH50 Mean
[10] = Table XIII, read-out: IH50 for Human Complement
[11] = Table XIV, read-out: Classical pathway IH50

Molecule	IC50 (C5a production) [mM]	IC50 (C3a production) [mM]	IC50 (human complement; [7]) [µM]	IC50 [2] [mM]	IC50 (factor I) [µM]	IC50 (human complement; [8]) [µM]	IC50 (human complement; [10])	IC50 (human complement; [11]) [µM]	also measured
COc1ccc(C(=O)O)c2c1CC(C)(C1CC=C(C)CC1)O2 (single isomer, unassigned; (+)) [(+)-20a]	8	> 14	680	–	–	–	–	–	IC50 [1, 5]: 2.1 mM; IC50 [1, 6]: 1.7 mM
CC1=CCC(C2(C)Cc3c(O)ccc(C(=O)O)c3O2)CC1 (single isomer, unassigned; (+)) [(+)-23a]	> 14	> 14	2100	–	–	–	–	–	–
COc1ccc(C(=O)O)c2c1CC(C)(C1CC=C(C)CC1)O2 (single isomer, unassigned; (-)) [(-)-20a]	6	11	380	–	–	–	–	–	–
COc1ccc(C(=O)O)c(O)c1CC1=CCCCC1 [Compound 12a, 3-(1'-CYCLOHEXENYL)METHYL-2-HYDROXY-4-METHOXYBENZOIC ACID]	8	13	2100	–	–	–	–	–	–
COc1ccc(C=O)c(O)c1CC1=CCCCC1 [Compound 12b, 3-(1'-CYCLOHEXENYL)METHYL-2-HYDROXY-4-METHOXYBENZALDEHYDE]	9	18	–	–	–	–	–	–	–
COc1cc(C(=O)O)cc2c1CC1(CCCCC1)O2 [Compound 44a, 6-CARBOXYL-4-METHOXYSPIRO[BENZOFURAN-2(3H)-CYCLOHEXANE] SODIUM SALT]	–	–	–	> 5.03	2740	530	538 µM	530	IC50 (rat complement): 17.3 mM; Graft survival time Mean ± SEM [3]: 8 min; Graft survival time ([3]; SODIUM SALT): 7 min and 9 min; IC50 (human complement; [9]): 532 µM
COc1cc(C(=O)O)c(C=O)c2c1CC1(CCCCC1)O2 [Compound 68, 6-carboxy-7-formyl-4-methoxyspiro[benzofuran-2(3H)-cyclohexane]]	–	–	–	1.36	150	164	100 µM and 164 µM	160	Graft survival time Mean ± SEM [3]: 142 ± 76 min; graft survival relative to controls [3]: prolonged graft survival times in 2 of the 3 animals; Graft survival time [3]: 7 min and 150 min and 270 min; effectiveness in inhibiting complement-mediated hemolysis compared with K76COOH (human complement): more effective
CC1CCC2C(C)(C)C(O)C(O)CC2(C)C12Cc1c(O)cc(C(=O)O)c(C=O)c1O2 (centres unmarked) [K76COOH, reference compound]	–	–	–	0.85	110	570	–	570	IC50 (human complement; [9]): 570 µM
CC1CCC2C(C)(C)C(O)C(O)CC2(C)C12Cc1c(O)cc(C(=O)O)c(C=O)c1O2 (centres unmarked) [K-76 COONa, reference compound]	3	–	570	–	–	–	–	–	IC50 [4]: 341 µM; inhibition of C3a production (C3a production; at a concentration of about 8.5 mM): Only marginal inhibition; IC50 [1, 5]: 0.5 mM; IC50 [1, 6]: 0.5 mM
sCR1: soluble human recombinant complement receptor type 1, used as a positive control in the in vitro assays	–	–	–	–	–	–	0.0009 µM	–	IC50 (rat complement): 1.5e-06 mM
